In PMC5663926, “In vivo near-infrared imaging of ErbB2 expressing breast tumors with dual-axes confocal endomicroscopy using a targeted peptide” (Scientific Reports, 2017):

What was measured:
[1] = tested on: ErbB2 on SKBR3 human breast cancer cells; assay: siRNA knockdown of ErbB2 in SKBR3 cells, binding of labeled ligand; type: cell-based
Description: We performed siRNA knockdown of ErbB2 in SKBR3 human breast cancer cells to validate specific binding of KSP* to ErbB2.
(§1) ~10^4 human breast cancer cells were seeded on 1 mm thick cover glass, and grown to ~80% confluence in 12 well plates. The cells were gently washed with cold PBS and blocked with 2% BSA before incubation with peptides. 1 μM of IRDye800CW-labeled peptides mixed with 2% BSA was added to each well and incubated at 4 °C for 1 hour. After incubation for […], the cells were washed with PBS 3X, fixed in ice cold 4% PFA for 10 min, and washed with PBS 1X. The cells were then embedded on microscope slides with 5 μL of ProLong Gold reagent containing DAPI (Invitrogen). SKBR3 cells were cultured in 6-well plates at 30–40% confluence in culture media supplemented with 10% fetal bovine serum without antibiotics. The cells were transfected with siRNA with a final concentration of […] using oligofectamine (Thermo Scientific).
We examined ErbB2 knockdown in SKBR3 cells using ON-TARGETplus human siRNA (#L-003126–00–0005), ON-TARGETplus Non-targeting pool (#D-001810–10–05), and DharmaFECT transfection reagents (Thermo Scientific) per manufacturer instructions. We transfected SKBR3 cells with either siErbB2 (targeting siRNA) or siCL (non-targeting siRNA) for control at a final concentration of […] using oligofectamine (Thermo Scientific).

ErbB2 on SKBR3 cells = assay: Binding co-localization with anti-ErbB2 antibody on cells; type: cell-based, human; details: KSP*-Cy5.5 and anti-ErbB2-AF488, average of 3 independent measurements
Description: […] The cells were washed and fixed with 4% PFA for 5 min, and then incubated with primary anti-ErbB2 and secondary AF488-labeled antibody.
For imaging, we used an inverted confocal microscope (Olympus FV1200) with a 63X water immersion objective and λex = 748 nm to excite IRDye800CW, λex = 405 nm for DAPI, and λex = 488 nm for Alexa Fluor 488. For antibody staining, the cells were pre-fixed with cold methanol for 10 min at −20 °C and blocked with 2% BSA for 30 min at room temperature (RT). Cells were incubated with a 1:450 dilution of anti-ErbB2 antibody (clone 111.6, Thermo Scientific) overnight at 4 °C. The cells were then washed with PBS 3X, and secondary goat […] antibody labeled with Alexa-Fluor 488 (AF488) was added to the cells for 1 hour at RT. The cells were washed further with PBS and mounted onto cover glass. Fluorescence intensities were measured from 3 randomly positioned boxes with dimensions of 20 × 20 μm^2, and were quantified using custom Matlab (Mathworks) software.

[2] = molecular target: ErbB2 extracellular domain 3; details: cited from earlier work
ErbB2 = assay: Competition with unlabeled peptide for binding of labeled KSP* to cells; type: cell-based, human; details: unlabeled peptide 0, 100, 250, 500, 1000 μM, 30 min at 4 °C; for effect of unlabeled peptide on binding of KSP*-IR800: BT474 cells as per Results text, then 0.5 μM labeled peptide; for effect of unlabeled peptide on mean fluorescence intensity of KSP*-Cy5.5: SKBR3 cells, one-way ANOVA (Fig. 2 legend)
Description: We performed competition by adding either unlabeled KSP* or PPS* peptide to block binding of KSP*-IR800 to BT474 cells. […] We also observed good co-localization of binding between KSP*-Cy5.5 (red) and AlexaFluor488-labeled anti-ErbB2 antibody (green) with Pearson’s correlation coefficient ρ = 0.70, Fig. 2P–S.
Specific binding of KSP*-IR800 to SKBR3 cells was validated using competition with unlabeled KSP* peptide. SKBR3 cells were grown to ~70% confluence on coverslips in triplicate. Unlabeled KSP* at concentrations of 0, 100, 250, 500, and 1000 μM was incubated with the cells for 30 min at 4 °C. The cells were washed with PBS 3X, and further incubated with 0.5 μM of KSP*-IR800 for another 30 min at 4 °C. The cells were washed with PBS 3X and fixed with 4% PFA for 10 min. The cells were washed with PBS and then mounted with ProLong Gold reagent containing DAPI (Invitrogen). Confocal fluorescence images were collected and intensities from 6 independent images at each concentration were quantified using custom Matlab (Mathworks) software.

[3] = Absorption and fluorescence emission spectra; type: physicochemical
Source text: We synthesized the ErbB2 and control peptides using standard Fmoc mediated solid-phase chemical synthesis and labeled with either Cy5.5 or IRDye800 fluorophores via standard bio-conjugation techniques. We used IRDye800CW-malemide (LiCor Biosciences) to label the peptide via a GGGSC linker at the C-terminus. The coupling yield was about 20–30% in aqueous solution without use of catalysis. IRDye800CW was used because of its high quantum yield, photostability, and lack of toxicity. The peptide absorption spectrum was measured using a UV-vis spectrophotometer in the 300–900 nm range (NanoDrop 2000, Thermo Scientific). Fluorescence emission from a 5 μM peptide solution diluted in PBS was collected with a fiber coupled spectrophotometer (Ocean Optics) using a diode pumped solid state laser (Technica Laser Inc) with excitation at λex = 780 nm. The spectra were plotted using Origin 9.5 software (OriginLab Corp).

[4] = tested on: ErbB2 in BT474 and MDA-MB-231 xenograft tumor and normal breast sections; assay: Immunofluorescence of human xenograft breast tumor sections; set-up: species or system mouse; details: 0.5 μM peptide, 10 min at RT
Description: Representative histology (H&E) for the MDA-MB-231 tumor is shown, Fig. S7I. […] Representative histology (H&E) for normal is shown, Fig. S7M.
(§2) Resected human xenograft breast tumors and normal breast tissues from n = 8 mice were formalin-fixed, paraffin embedded, and cut in 5 μm thick sections. IDC and normal human breast tissues were collected and prepared with the same protocol. The specimens were cut in 5 μm sections, and deparaffinization, rehydration and antigen unmasking was performed, as described previously. Blocking was performed with DAKO protein blocking agent (X0909, DAKO) for 1 hour at RT. Sections were then incubated with 0.5 μM of either peptide in 2% BSA for 10 min at RT. The sections were washed with PBS 3X and mounted with Prolong Gold reagent containing DAPI (Invitrogen).

[5] = tested on: ErbB2 on BT474 (ErbB2+) and MDA-MB-231 (ErbB2−) human breast cancer cells; assay: Confocal microscopy of NIR-labeled peptide binding to breast cancer cells; type: cell-based; details: 1 μM peptide, 2% BSA, 4 °C, 1 hour
Description: as §1
For imaging, we used an inverted confocal microscope (Olympus FV1200) with a 63X water immersion objective and λex = 748 nm to excite IRDye800CW, λex = 405 nm for DAPI, and λex = 488 nm for Alexa Fluor 488. For antibody staining, the cells were pre-fixed with cold methanol for 10 min at −20 °C and blocked with 2% BSA for 30 min at room temperature (RT). […] Fluorescence intensities were measured from 3 randomly positioned boxes with dimensions of 20 × 20 μm^2, and were quantified using custom Matlab (Mathworks) software.

[6] = tested on: ErbB2 in human breast specimens (IDC, DCIS, normal); assay: Immunofluorescence of human breast specimens ex vivo
Source text: We evaluated peptide binding to sections of human breast specimens to assess potential for clinical translation. […] Representative histology (H&E) is shown, Fig. 6D. We also observed strong co-localization of binding (arrow) between KSP*-IR800 peptide (red) and AF488-labeled anti-ErbB2 antibody (green) to ErbB2 + IDC specimens with Pearson’s correlation coefficient of ρ = 0.53, Fig. 6E,F. We quantified the fluorescence intensities, Fig. 6G. […] Representative histology (H&E) for DCIS is shown, Fig. 6M. […] Representative histology (H&E) for normal is shown, Fig. 6O.
as §2
Formalin-fixed, paraffin-embedded (FFPE) human breast specimens known to express ErbB2 (n = 4 patients) were obtained from the archived tissue bank in the Department of Pathology at the University of Michigan. 5 μm sections were cut and rehydrated to water. Slides were counterstained with Harris Hematoxylin for 5 sec, dehydrated, and cover-slipped. Heat induced epitope retrieval was performed with FLEX TRS High pH Retrieval buffer (DAKO, 9.01) for 20 min. After peroxidase blocking, the antibody Her2/neu rabbit monoclonal (Cell Marque Corporation, SP3 cat#237R-16) was applied at a dilution of 1:150 at RT for 20 min. The EnVision + detection System HRP anti-rabbit (DAKO, #K4002) was used for detection. DAB chromogen was then applied for 10 min. Sections of human breast specimens were mounted onto glass slides (Superfrost Plus, Fischer Scientific). The tissues were deparaffinized, and antigen retrieval was performed, as discussed above. Histology and IHC were performed to evaluate for ErbB2 expression.
Human breast specimens were embedded in paraffin and antigen unmasking was performed as described above. Blocking was performed with 2% BSA solution in PBS at RT for 1 hour. We used 1:250 dilution of monoclonal mouse anti-ErbB2 antibody (clone 111.6, Thermo Scientific). The sections were incubated at RT for 1 hour with primary antibody and then washed in PBS for 5 min. […] Fluorescence intensities were measured from 3 randomly positioned boxes with dimensions of 20 × 20 μm^2.

KSPNPRF [KSP*-Cy5.5]
fold greater signal, siCL control versus siErbB2 knockdown cells ([1]; SKBR3, average of 3 independent measurements, ANOVA, difference of differences significant): 4.42 fold | reduction in fluorescence intensities in ErbB2 knockdown cells ([1]; SKBR3 siErbB2 versus siCL, qualitative): significant reduction | binding to cell surface ([1]; control SKBR3 cells (siCL), qualitative): strong binding | Pearson's correlation coefficient ρ for co-localization with anti-ErbB2-AF488 (ErbB2 on SKBR3 cells): 0.70 | Kd ([2]; peptide labeled with Cy5.5, read-out: affinity): 0.02 µM | binding kinetics (rate) ([2]; peptide labeled with Cy5.5): 0.14 min⁻¹

KSPNPRF [KSP*]
effect of unlabeled peptide on binding of KSP*-IR800 (ErbB2): decreases significantly in a concentration dependent manner | effect of unlabeled peptide on mean fluorescence intensity of KSP*-Cy5.5 (ErbB2): decreases significantly in a concentration dependent manner

PPSNFKR [PPS*, unlabeled scrambled control peptide]
effect of unlabeled peptide on binding of KSP*-IR800 (ErbB2): significantly less effective competition | effect of unlabeled peptide on mean fluorescence intensity of KSP*-Cy5.5 (ErbB2): significantly less affected

PPSNFKR [PPS*-IR800]
peak emission λem ([3]; 5 μM peptide solution diluted in PBS, excitation 780 nm): 800 nm | maximum absorbance λex ([3]; UV-vis spectrophotometer, 300–900 nm range): 780 nm | binding / signal on immunofluorescence ([4]; BT474 xenograft tumor sections, 2% BSA, qualitative): minimal signal | fluorescence intensity on immunofluorescence ([4]; MDA-MB-231 tumor sections, qualitative): minimal | fluorescence intensity on immunofluorescence ([4]; normal breast sections, qualitative): minimal | fold increase, BT474 versus MDA-MB-231 tumors ([4]; xenograft tumor sections, ANOVA with terms for 6 groups on log-transformed data): 1.8 fold | fold greater signal, BT474 versus MDA-MB-231 cells ([5]; average of 3 independent measurements, ANOVA on log-transformed data, difference of differences significant): 1.04 fold | signal to cell surface ([5]; either cell (BT474 and MDA-MB-231), qualitative): Minimal signal | binding / signal on immunofluorescence ([6]; ductal carcinoma in situ (DCIS), 0.5 μM peptide, 10 min at RT, qualitative): minimal signal | binding / signal on immunofluorescence ([6]; invasive ductal carcinoma (IDC), 0.5 μM peptide, 2% BSA, 10 min at RT, qualitative): minimal signal | fold greater signal, IDC (ErbB2+) versus normal (ErbB2−) breast ([6]; n = 4 patients, ANOVA on log-transformed data, difference of differences not significant, P = 0.09): 1.30 fold | staining on immunofluorescence ([6]; normal human breast tissue, 0.5 μM peptide, 10 min at RT, qualitative): minimal staining
